Measurements taken from the supplement of paper PMC10733146.

Key:
Test in all cases: viability relative to DMSO control (fraction); higher = less drug effect (more viable cells)
Conditions in all cases: 48 h
[1] = test system: primary DLBCL patient cells (S082)
Procedure, shortened: (§1)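 In 384-well plates with compounds pre-plated at five concentrations (one well per concentration), primary mononuclear tumour cells were plated at 4 × 10^4 cells per well. The cells came from blood or bone marrow by Ficoll isolation or from processed lymph node, and were used fresh or cryopreserved. Culture ran for 48 h at 37 °C and 5% CO2 in RPMI-1640 containing penicillin/streptomycin, L-glutamine and human serum. Viability was read as CellTiter-Glo luminescence, normalised to the median of 16 inner DMSO wells.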

[2] = test system: primary AML patient cells (S017)
Procedure, shortened: as §1

[3] = test system: primary AML patient cells (S091)
Procedure, shortened: as §1

[4] = test system: primary AML patient cells (S060)
Procedure, shortened: as §1

[5] = test system: primary T-PLL patient cells (S008)
Procedure, shortened: as §1

[6] = test system: primary AML patient cells (S009)
Procedure, shortened: as §1

[7] = test system: primary AML patient cells (S072)
Procedure, shortened: as §1

[8] = test system: primary AML patient cells (S002)
Procedure, shortened: as §1

[9] = test system: primary B-PLL patient cells (S016)
Procedure, shortened: as §1

[10] = test system: primary AML patient cells (S089)
Procedure, shortened: as §1

[11] = test system: primary MCL patient cells (S068)
Procedure, shortened: as §1

[12] = test system: primary MCL patient cells (S053)
Procedure, shortened: as §1

[13] = test system: primary AML patient cells (S081)
Procedure, shortened: as §1

[14] = test system: primary AML patient cells (S071)
Procedure, shortened: as §1

[15] = test system: primary AML patient cells (S025)
Procedure, shortened: as §1

[16] = test system: primary AML patient cells (S021)
Procedure, shortened: as §1

[17] = test system: primary AML patient cells (S037)
Procedure, shortened: as §1

[18] = test system: primary CLL patient cells (S043)
Procedure, shortened: as §1

[19] = test system: primary BL patient cells (S005)
Procedure, shortened: as §1

Compound: Cc1sc2c(c1C)C(c1ccc(Cl)cc1)=N[C@@H](CC(=O)Nc1ccc(O)cc1)c1nnc(C)n1-2 [OTX015]
- viability ([1]; 0.016 µM): 0.872
- viability ([1]; 0.08 µM): 0.674
- viability ([1]; 0.4 µM): 0.244
- viability ([1]; 2 µM): 0.116
- viability ([1]; 10 µM): 0.0851
- viability ([2]; 0.016 µM): 0.96
- viability ([2]; 0.08 µM): 0.937
- viability ([2]; 0.4 µM): 0.573
- viability ([2]; 2 µM): 0.391
- viability ([2]; 10 µM): 0.354
- viability ([3]; 0.016 µM): 0.741
- viability ([3]; 0.08 µM): 0.478
- viability ([3]; 0.4 µM): 0.276
- viability ([3]; 2 µM): 0.25
- viability ([3]; 10 µM): 0.254
- viability ([4]; 0.016 µM): 1.01
- viability ([4]; 0.08 µM): 1.03
- viability ([4]; 0.4 µM): 0.775
- viability ([4]; 2 µM): 0.501
- viability ([4]; 10 µM): 0.344
- viability ([5]; 0.016 µM): 1.02
- viability ([5]; 0.08 µM): 1.01
- viability ([5]; 0.4 µM): 0.983
- viability ([5]; 2 µM): 0.996
- viability ([5]; 10 µM): 1.02
- viability ([6]; 0.016 µM): 0.859
- viability ([6]; 0.08 µM): 0.752
- viability ([6]; 0.4 µM): 0.6
- viability ([6]; 2 µM): 0.489
- viability ([6]; 10 µM): 0.457
- viability ([7]; 0.016 µM): 0.806
- viability ([7]; 0.08 µM): 0.826
- viability ([7]; 0.4 µM): 0.604
- viability ([7]; 2 µM): 0.375
- viability ([7]; 10 µM): 0.364
- viability ([8]; 0.016 µM): 0.853
- viability ([8]; 0.08 µM): 0.565
- viability ([8]; 0.4 µM): 0.396
- viability ([8]; 2 µM): 0.315
- viability ([8]; 10 µM): 0.317
- viability ([9]; 0.016 µM): 1.06
- viability ([9]; 0.08 µM): 1.15
- viability ([9]; 0.4 µM): 0.891
- viability ([9]; 2 µM): 0.711
- viability ([9]; 10 µM): 0.687
- viability ([10]; 0.016 µM): 0.894
- viability ([10]; 0.08 µM): 0.848
- viability ([10]; 0.4 µM): 0.546
- viability ([10]; 2 µM): 0.398
- viability ([10]; 10 µM): 0.311
- viability ([11]; 0.016 µM): 0.856
- viability ([11]; 0.08 µM): 0.616
- viability ([11]; 0.4 µM): 0.266
- viability ([11]; 2 µM): 0.2
- viability ([11]; 10 µM): 0.184
- viability ([12]; 0.016 µM): 0.972
- viability ([12]; 0.08 µM): 0.949
- viability ([12]; 0.4 µM): 0.689
- viability ([12]; 2 µM): 0.546
- viability ([12]; 10 µM): 0.477
- viability ([13]; 0.016 µM): 0.847
- viability ([13]; 0.08 µM): 0.793
- viability ([13]; 0.4 µM): 0.475
- viability ([13]; 2 µM): 0.257
- viability ([13]; 10 µM): 0.205
- viability ([14]; 0.016 µM): 0.988
- viability ([14]; 0.08 µM): 1.08
- viability ([14]; 0.4 µM): 0.994
- viability ([14]; 2 µM): 0.829
- viability ([14]; 10 µM): 0.722
- viability ([15]; 0.016 µM): 0.87
- viability ([15]; 0.08 µM): 0.971
- viability ([15]; 0.4 µM): 0.767
- viability ([15]; 2 µM): 0.629
- viability ([15]; 10 µM): 0.549
- viability ([16]; 0.016 µM): 0.937
- viability ([16]; 0.08 µM): 1.02
- viability ([16]; 0.4 µM): 0.894
- viability ([16]; 2 µM): 0.815
- viability ([16]; 10 µM): 0.634
- viability ([17]; 0.016 µM): 1.11
- viability ([17]; 0.08 µM): 0.851
- viability ([17]; 0.4 µM): 1
- viability ([17]; 2 µM): 0.716
- viability ([17]; 10 µM): 0.97
- viability ([18]; 0.016 µM): 0.959
- viability ([18]; 0.08 µM): 0.963
- viability ([18]; 0.4 µM): 0.9
- viability ([18]; 2 µM): 0.76
- viability ([18]; 10 µM): 0.762
- viability ([19]; 0.016 µM): 0.977
- viability ([19]; 0.08 µM): 0.911
- viability ([19]; 0.4 µM): 0.818
- viability ([19]; 2 µM): 0.758
- viability ([19]; 10 µM): 0.802
